Usually IC50 stands for the concentration needed to halve the response being measured.

The target in test [1] is T1, recombinant human tissue transglutaminase (rhTG2) (Homo sapiens, UniProt P21980).
T1 construct: purchased Zedira 1022 (so in the source); T022)
T1 sequence (P21980 1-687): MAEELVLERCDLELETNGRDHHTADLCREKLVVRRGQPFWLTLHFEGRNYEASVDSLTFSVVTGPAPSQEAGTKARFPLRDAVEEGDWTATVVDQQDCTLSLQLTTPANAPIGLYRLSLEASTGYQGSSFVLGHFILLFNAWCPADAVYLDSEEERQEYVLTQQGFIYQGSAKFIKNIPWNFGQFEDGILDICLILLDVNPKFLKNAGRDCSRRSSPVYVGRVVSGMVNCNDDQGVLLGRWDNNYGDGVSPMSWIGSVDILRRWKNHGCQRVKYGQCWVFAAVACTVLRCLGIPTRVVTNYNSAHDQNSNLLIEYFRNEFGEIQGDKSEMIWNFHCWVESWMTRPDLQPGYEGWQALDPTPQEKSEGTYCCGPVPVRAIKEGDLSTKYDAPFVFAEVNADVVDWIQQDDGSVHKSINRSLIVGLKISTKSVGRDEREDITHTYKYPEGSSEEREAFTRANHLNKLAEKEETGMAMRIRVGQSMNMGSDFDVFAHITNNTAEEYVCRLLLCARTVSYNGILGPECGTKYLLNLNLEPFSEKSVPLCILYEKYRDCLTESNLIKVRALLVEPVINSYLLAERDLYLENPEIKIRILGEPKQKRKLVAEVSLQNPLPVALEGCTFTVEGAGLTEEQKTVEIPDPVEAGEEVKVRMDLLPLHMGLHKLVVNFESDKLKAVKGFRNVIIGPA
Briefly: Inhibition of rec. human tissue transglutaminase (fluorescence, Abz-APE(CAD-DNP)QEA-OH). The test is classed as biochemical. Put shortly: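 His6-rhTG2 in a master mix (50 mM Tris-HCl pH 7.4, 7.5 mM CaCl2, 150 mM NaCl, 5 mM DTT, 13.4 mM glycine methylester, 50 μM Abz-APE(CAD-DNP)QEA-OH) was added to serially diluted inhibitor. Fluorescence (ex 313/em 418 nm) was followed at 37 °C for 20 min. IC50 came from the 10–20 min slope relative to the 2% DMSO control.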

Test [2] relates to NRK52E cells. Briefly: Extracellular matrix protein deposition of NRK52E cells (DC-protein-assay). The following applies: hyperglycemic glucose concentrations. In kind it is cell-based, Rattus norvegicus. As for the experimental part:
Fibrosis is a hallmark in diabetic nephropathy and chronic kidney diseases. Proximal tubular epithelial cells show increased TG2 activity and increased extracellular matrix proteins (ECM) accumulation under hyperglycemic conditions. ECM accumulation is a hall mark of fibrosis. […] TG2-activity and ECM-accumulation was measured. Rattus norvegicus kidney derived cell line NRK52E was grown at 37° C. in a humidified atmosphere at 5% (v/v) CO2 in DMEM (Dulbecco's modified Eagle's medium) containing 100 μg/mL streptomycin, 100 units/ml penicillin, […], and 10% (v/v) fetal calf serum. For simulation of normal physiological conditions 6 mM D-glucose were added to the medium, while addition of 24 mM and 36 mM D-glucose simulated hyperglycemic conditions. Reversible TG2 inhibitor E06 in the concentrations indicated in FIG. 1A was added at the time of plating to the medium. Reversible TG2 inhibitor E22 in the concentrations indicated in FIG. 2A was added at the time of plating to the medium.
For the determination of extracellular matrix proteins (ECM) deposition, cells grown in 10 cm Petri-dishes were removed with 1 mL sodium deoxycholate (0.1%) -EDTA (2 mM)-solution. ECM proteins remaining on the plate were solubilized by digestion with trypsin (0.2 mg/mL) -EDTA (2 mM) solution. […] Protein concentration was determined using the DC-protein-assay (BioRad, #5000111).

Consider `CC(=O)N[C@@H](CCC(=O)C(N)=O)C(=O)N1CCN(c2ccccc2Cl)CC1` [Compound E06, (S)-5-acetamido-6-(4-(2-chlorophenyl)piperazin-1-yl)-2,6-dioxohexanamide], for which the IC50 in test [1] (Table 1, TG2 inhibitors) was found to be 100 nM. Also, the “increase of ECM (extracellular matrix protein deposition)” value in test [2] is on record as “reduced in a dose dependent manner”. For `COC(=O)[C@H](CC(C)C)NC(=O)[C@@H]1CCCN1C(=O)[C@@H](NC(=O)[C@H](CCC(=O)C(N)=O)NC(=O)OCc1ccccc1)C(C)C` [Compound E02, (S)-methyl 2-((S)-1-((S)-2-((S)-6-amino-2-(benzyloxycarbonylamino)-5,6-dioxo-hexanamido)-3-methylbutanoyl)pyrrolidine-2-carboxamido)-4-methylpentanoate], the IC50 in test [1] (Table 1, TG2 inhibitors) is 70 nM.

For the compound `CC(=O)N1CCC[C@H]1C(=O)N[C@@H](CCC(=O)C(N)=O)C(=O)N1CCN(c2ncccc2C)CC1` [Compound E07, (S)-1-acetyl-N—((S)-6-amino-1-(4-(3-methylpyridin-2-yl)piperazin-1-yl)-1,5,6-trioxohexan-2-yl)pyrrolidine-2-carboxamide], the IC50 in test [1] (Table 1, TG2 inhibitors) amounted to 100 nM. Turning to `CCCCCNC(=O)C(=O)CC[C@H](NC(=O)[C@@H]1CCCN1C(C)=O)C(=O)Nc1cccn(CC(=O)NCC(CC)CC)c1=O` [Compound E22, (S)-2-((S)-1-acetylpyrrolidine-2-carboxamido)-N1-(1-(2-(2-ethylbutylamino)-2-oxoethyl)-2-oxo-1,2-dihydropyridin-3-yl)-5-oxo-N6-pentylhexanediamide], the IC50 in test [1] (Table 2, TG2 inhibitors) was found to be 85 nM. The “increase of ECM (extracellular matrix protein deposition)” value in test [2] is “reduced in a dose dependent manner”.

The values are drawn from patent US11072634B2, “Inhibitors of transglutaminases” (Zedira GmbH, priority 2016, dated 2021).
